Source: ChEMBL document CHEMBL1122867, “Inhibition of human leukocyte elastase, porcine pancreatic elastase, and chymotrypsin by elasnin and other 4-hydroxy-2-pyrones” (J Med Chem, 1985)

Legend:
[1] = target: T1, Neutrophil elastase (Homo sapiens, UniProt P08246); experiment: Inhibitory activity against human leukocyte elastase (HL elastase) expressed as inhibitory constant
T1 sequence (P08246 whole entry): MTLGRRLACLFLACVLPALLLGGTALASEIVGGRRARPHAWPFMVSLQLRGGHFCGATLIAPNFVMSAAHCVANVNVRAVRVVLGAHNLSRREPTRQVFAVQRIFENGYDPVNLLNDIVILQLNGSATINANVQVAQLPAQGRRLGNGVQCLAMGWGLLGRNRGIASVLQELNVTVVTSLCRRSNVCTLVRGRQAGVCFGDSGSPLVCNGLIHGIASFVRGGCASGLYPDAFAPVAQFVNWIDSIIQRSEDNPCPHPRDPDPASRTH

[2] = target: Chymotrypsin-like elastase family member 1 (Sus scrofa, UniProt P00772); experiment: Inhibitory activity against porcine pancreatic elastase (PP elastase) expressed as inhibitory constant
Chain of Chymotrypsin-like elastase family member 1 (P00772 whole entry): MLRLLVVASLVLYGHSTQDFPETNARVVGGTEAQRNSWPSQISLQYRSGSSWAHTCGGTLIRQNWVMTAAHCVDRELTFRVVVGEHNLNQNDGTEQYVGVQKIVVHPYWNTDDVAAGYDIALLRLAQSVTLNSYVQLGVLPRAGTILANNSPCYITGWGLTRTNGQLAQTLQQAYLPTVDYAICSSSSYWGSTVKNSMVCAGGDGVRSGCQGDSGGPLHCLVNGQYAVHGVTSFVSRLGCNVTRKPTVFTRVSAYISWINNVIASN

[3] = Partition coefficient (logP) (octanol/saline); assay type: physicochemical

| Ki [1] [µM] | Ki [2] [µM] | logP [3] | SMILES |
| --- | --- | --- | --- |
| 977 | 2140 | 0.78 | Cc1c(O)cc(CC(=O)c2ccccc2)oc1=O |
| 646 | 562 | 0.79 | CCCCc1c(C)oc(O)c(CCCC)c1=O |
| 10000 |  | 0.43 | O=C(Cc1cc(=O)cc(O)o1)c1ccccc1 |
| 288 | 251 | 2.82 | CCCCc1c(CC(C)=O)oc(=O)c(CCCC)c1OC(C)=O |
| 6310 | 3890 | 0.74 | Cc1cc(O)c(C)c(=O)o1 |
|  | 8.13 | 3.53 | CCCCCC(=O)C(CCCC)c1oc(=O)c(CCCC)c(OC(C)=O)c1CCCC (stereo unspecified) |
| 6030 | 3240 | 0.73 | Cc1c(CC(=O)c2ccccc2)oc(=O)c(C)c1O |
| 339 | 316 | 2.17 | CCCCc1c(C2OC2C)oc(=O)c(CCCC)c1OC(C)=O (stereo unspecified) |
| 151 | 15.1 | 1.52 | CCCCCCC(C=O)(CCCC)c1oc(=O)c(CCCC)c(O)c1CCCC (stereo unspecified) |
| 4900 | 21900 | 0.36 | Cc1oc(=O)c(C)c(O)c1C |
| 93.3 | 69.2 | 2.52 | CCCCCC(=O)C(CCCC)c1oc(=O)c(CCCC)c(O)c1CCCC (stereo unspecified) |
| 363 | 141 | 1.39 | C/C=C(\c1ccccc1)c1oc(=O)c(CCCC)c(O)c1CCCC |
| 490 | 741 | 1.74 | CCCCc1c(CC(C)=O)oc(=O)c(CCCC)c1O |
| 95.5 | 21.4 | 1.21 | CCCCc1c(C(CCCC)C(=O)c2ccccc2)oc(=O)c(CCCC)c1O (stereo unspecified) |
| 347 | 1070 | 1.92 | CCCCc1c(CC(C)O)oc(=O)c(CCCC)c1OC(C)=O (stereo unspecified) |
| 8130 | 3090 | 0.5 | Cc1cc(O)cc(=O)o1 [4-HYDROXY-6-METHYLPYRAN-2-ONE] |
